Data reported in ChEMBL document CHEMBL5512634, “Sulfone-based human liver pyruvate kinase inhibitors - Design, synthesis and in vitro bioactivity” (Eur J Med Chem, 2024).
Blank lines part the entries; values can stand above or below the compound they belong to. Active and inactive are the calls of the source. No cut-off for these calls is given here.

What was measured:
HepG2 = assay: Cytotoxicity against PKM2 knock out human HepG2 cells at 1 to 10 uM measured for 24 to 72 hrs; format: toxicity, cell-based; settings: hepg2, 10 µM, dose lower 1 µM, time lower 24 hrs, dose upper 10 µM, time upper 72 hrs
Pyruvate kinase PKLR [1] = target: T1, Pyruvate kinase PKLR (Homo sapiens, UniProt P30613); assay: Inhibition of full length N-terminal His-tagged human PKL (2 to 543 residues) expressed in Escherichia coli at 10 uM by kinase Glo luminescence based plate reader assay relative to control
Target sequence in this assay (P30613 whole entry, looked up, the tested form may be a part): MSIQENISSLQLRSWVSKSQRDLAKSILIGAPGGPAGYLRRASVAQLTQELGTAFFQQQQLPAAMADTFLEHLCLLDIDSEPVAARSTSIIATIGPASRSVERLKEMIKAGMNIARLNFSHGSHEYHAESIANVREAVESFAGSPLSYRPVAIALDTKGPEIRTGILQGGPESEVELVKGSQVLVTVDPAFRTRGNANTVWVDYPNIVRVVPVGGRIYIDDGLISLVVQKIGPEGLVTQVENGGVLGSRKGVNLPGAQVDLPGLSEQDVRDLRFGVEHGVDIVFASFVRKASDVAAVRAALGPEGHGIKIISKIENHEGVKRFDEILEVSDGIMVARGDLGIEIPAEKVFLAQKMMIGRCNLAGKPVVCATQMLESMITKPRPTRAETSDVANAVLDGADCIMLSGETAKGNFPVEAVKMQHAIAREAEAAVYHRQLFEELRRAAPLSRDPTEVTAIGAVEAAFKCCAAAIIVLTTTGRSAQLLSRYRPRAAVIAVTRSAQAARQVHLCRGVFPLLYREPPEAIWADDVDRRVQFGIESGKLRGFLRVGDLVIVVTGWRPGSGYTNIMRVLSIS

Pyruvate kinase PKLR [2] = target: T1, Pyruvate kinase PKLR; assay: Inhibition of full length N-terminal His-tagged human PKL (2 to 543 residues) expressed in Escherichia coli by kinase Glo luminescence based plate reader assay
Target sequence in this assay (P30613 whole entry, the tested form may be a part): as the sequence (P30613 whole entry, looked up, the tested form may be a part) above

Pyruvate kinase PKLR [3] = target: T1, Pyruvate kinase PKLR; assay: Inhibition of PKR (unknown origin)
Target sequence in this assay (P30613 whole entry, looked up, the tested form may be a part): as above

SMILES: O=S1(=O)Oc2c(ccc(O)c2O)-c2cc(O)c(O)cc21
Activity (HepG2): Non-Toxic

inhibition (Pyruvate kinase PKLR [1]): Active
SMILES: O=S1(=O)Oc2c(ccc(O)c2O)-c2cc(O)ccc21

IC50 (Pyruvate kinase PKLR [2]): 70 nM
IC50 (Pyruvate kinase PKLR [3]): 180 nM
SMILES: O=S1(=O)Oc2cc(O)c(O)c(O)c2-c2cc(O)c(O)cc21
